Data from article PMC9841529 (ACS Infectious Diseases, 2022).
Entries after “also recorded” stand apart in the source; their conditions may differ. Where two headings read alike, the source gives them in different places. Residues, ends and D or L forms follow the SMILES beside them.

Legend:
[1] = system: B. anthracis Sterne 7702 bacilli (wild-type)
[2] = system: B. anthracis Sterne 7702 ΔftsX bacilli
[3] = system: K. pneumoniae BL13802
[4] = system: human RBCs
[5] = system: primary human T-cells
[6] = system: CXCR3-expressing human T-cells; type: cell-based
[7] = system: B. anthracis Sterne 7702 spores; type: cell-based, Bacillus anthracis
[8] = system: A. baumannii AR0304; type: cell-based, Acinetobacter baumannii
[9] = system: E. faecium AR0575; type: cell-based, Enterococcus faecium
[10] = system: S. aureus LAC; type: cell-based, Staphylococcus aureus
[11] = system: N. gonorrhoeae FA1090; type: cell-based, Neisseria gonorrhoeae
[12] = system: N. gonorrhoeae H041; type: cell-based, Neisseria gonorrhoeae
[13] = system: mcr-1-positive E. coli FI-4531, E. coli J53 and K. pneumoniae 13883; type: cell-based, Escherichia coli; Klebsiella pneumoniae
[14] = system: K. pneumoniae BA2664 (mutated pmrB); type: cell-based, Klebsiella pneumoniae
[15] = system: K. pneumoniae MS84 (disrupted mgrB); type: cell-based, Klebsiella pneumoniae
[16] = system: E. cloacae BL36213; type: cell-based, Enterobacter cloacae
[17] = pH 7.4

## CC[C@H](C)[C@H](NC(=O)[C@H](CO)NC(=O)[C@@H](NC(=O)[C@H](CS)NC(=O)[C@@H](NC(=O)[C@H](CS)NC(=O)[C@H](CCCNC(=N)N)NC(=O)[C@@H](NC(=O)[C@@H](NC(=O)[C@H](CCCNC(=N)N)NC(=O)[C@H](CO)NC(=O)[C@H](CC(C)C)NC(=O)[C@@H]1CCCN1C(=O)[C@@H](N)C(C)C)[C@@H](C)O)C(C)C)[C@@H](C)O)[C@@H](C)CC)C(N)=O [P1] (H-VPLSRTVRCTCISI-NH2)
[1]; Sterne 7702 bacilli (wild-type, 4 h)
  EC50: 18.1 ± 0.3 µM
[2]; Sterne 7702 ΔftsX bacilli, 4 h
  EC50: 53.1 ± 0.8 µM
[3]; BL13802, 2 h
  EC50: 13.4 ± 1.2 µM
[4]
  hemolysis: negligible hemolysis
[5]
  percentage of dead cells: less than 5%

## CXCL10
[6]
  chemotactic index (CI): approximately 6

## EIIATMKKKGEKRCL [P5]
[7]
  decrease of heat-treated cfu counts versus initial spore inoculum: ~200 fold
  increase of cfu counts without heat treatment versus initial spore inoculum: more than 10 fold
[6]
  T-cell migration: did not elicit T-cell migration
[4]
  hemolysis: negligible hemolysis
[5]
  percentage of dead cells: less than 5%

## KNLLKAVSKERSKRSP [P8]
[3]
  % survival (cfu/ml): efficiently killed K. pneumoniae

## Melittin [reference compound]
[4]
  hemolysis: high levels of hemolysis

## PESKAIK(S5A)LLK(S5A)VSKERSKRSP (sidechain bridge or staple) [stapled peptide P9]
[7]
  viability of ungerminated spores compared to the initial inoculum: modest reductions in the viability of ungerminated spores
[8]
  bacterial killing (in words): particularly susceptible
[9]
  bacterial killing (in words): particularly susceptible
[10]
  bacterial killing (in words): particularly susceptible
[11]
  bacterial killing (in words): particularly susceptible
[12]
  bacterial killing (in words): particularly susceptible
[13]
  bacterial killing (in words): killed colistin-resistant K. pneumoniae and E. coli strains
[14]
  bacterial killing (in words): killed colistin-resistant K. pneumoniae
[15]
  bacterial killing (in words): killed colistin-resistant K. pneumoniae
[1]
  EC50: 8.5 ± 0.9 µM
[1]; read-out: EC50 values (as stated in running text)
  EC50: 4 to 5 µM
[2]
  EC50: 9.6 ± 1 µM
[4]
  hemolysis: neither pre-stapled nor stapled peptide P9 exerted hemolytic effects
[5]
  cytotoxic effects (dead cells): greatly reduced
  percentage of dead cells: ~45%

## PESKAIK(S5A)LLK(S5A)VSKERSKRSP [pre-stapled peptide P9]
[1]
  EC50: 4.3 ± 0.4 µM
[2]
  EC50: 5 ± 1.2 µM

## PESKAIKNLLKAVSKERSKRSP [P9]
[16]
  bacterial killing (in words): lost its capacity to kill any of the isolates examined; also recorded: except E. cloacae
[9]
  bacterial killing (in words): lost its capacity to kill any of the isolates examined; also recorded: little to no effect on the viability
[10]
  bacterial killing (in words): lost its capacity to kill any of the isolates examined; also recorded: little to no effect on the viability
[11]
  bacterial killing (in words): reductions in bacterial viability were more modest
[12]
  bacterial killing (in words): reductions in bacterial viability were more modest
[13]
  bacterial killing (in words): undiminished
[14]
  bacterial killing (in words): but not peptide P9
[15]
  bacterial killing (in words): but not peptide P9
[3]
  % survival (cfu/ml): efficiently killed K. pneumoniae
  bacterial survival (RFU): abolished the ability
[4]
  hemolysis: negligible hemolysis
[5]
  percentage of dead cells: less than 5%
[17]
  secondary structure content: antiparallel β-sheet: 12%
  secondary structure content: turn: 18%
  secondary structure content: α-helix: 35%

## TISVCPTLRRIVSC [P1scram]
[1]
  bacterial viability, % survival (RFU): abolished antimicrobial activity
